Like-named read-outs stand apart in the source and are kept apart here.
Tested on: panel of hematologic and solid cancer lines
Assay: 6-day in vitro growth/death assay
Type: cell-based, human
Settings: read-out: gIC50
Procedure: To further develop these molecules and to guide clinical strategy, it was necessary to understand sensitivity in preclinical models by assessing the anti-tumour activity of the PRMT5 inhibitors in various cancers.
Cell lines were obtained from ATCC or DSMZ and were grown in recommended medium, which was most frequently RPMI-1640 containing 10% FBS. Cell line proliferation assays, Western blotting, qRT-PCR, and cell cycle analyses were performed as described previously[27],[28]. Antibody and gene expression reagents are as described in Supplementary Table 16. All studies were conducted in accordance with the GSK Policy on the Care, Welfare and Treatment of Laboratory Animals and were reviewed by the Institutional Animal Care and Use Committee either at GSK or by the ethical review process at the institution where the work was performed. Detailed descriptions of all methods can be found in the Supplemental Materials.

O=C(NC[C@H](O)CN1CCc2ccccc2C1)c1ccnc(NC2CCC2)c1 [GSK3203591]
IC50 (Homo sapiens, NCI-H747, NCIH747): 1500 nM
IC50 (Homo sapiens, NCI-H1048, NCI-H1048): 252 nM
IC50 (Homo sapiens, NCI-H1299, NCI-H1299): 419 nM
IC50 (Homo sapiens, NCI-H1437, NCI-H1437): 467 nM
IC50 (Homo sapiens, NCI-H1563, NCI-H1563): > 29300 nM
IC50 (Homo sapiens, NCI-H1581, NCI-H1581): 12800 nM
IC50 (Homo sapiens, NCI-H1648, NCI-H1648): 20700 nM
IC50 (Homo sapiens, NCI-H1650, NCI-H1650): 8770 nM
IC50 (Homo sapiens, NCI-H1651, NCI-H1651): 15300 nM
IC50 (Homo sapiens, NCI-H1915, NCI-H1915): 1130 nM
IC50 (Homo sapiens, NCI-H1975, NCI-H1975): 289 nM
IC50 (Homo sapiens, NCI-H2087, NCI-H2087): 510 nM
IC50 (Homo sapiens, NCI-H2170, NCI-H2170): 6390 nM
IC50 (Homo sapiens, NKM-1): 7.6 nM
IC50 (Homo sapiens, NOMO-1, NOMO-1): 7320 nM
IC50 (Homo sapiens, NU-DHL-1, NU-DHL-1): 101 nM
IC50 (Homo sapiens, NU-DUL-1, NU-DUL-1): 548 nM
IC50 (Homo sapiens, OCI-AML-3, OCI-AML3): 373 nM
IC50 (Homo sapiens, OCI-AML-5, OCI-AML5): 297 nM
IC50 (Homo sapiens, OCI-LY19, OCI-LY-19): 101 nM
IC50 (Homo sapiens, OCI-Ly1, OCILY-1): > 29300 nM
IC50 (Homo sapiens, OCI-Ly3, OCI-LY3): 1510 nM
IC50 (Homo sapiens, OCI-Ly10, OCILY-10): 4470 nM
IC50 (Homo sapiens, OCI-Ly18, OCI-LY-18): 30.8 nM
IC50 (Homo sapiens, OCI-M1, OCI-M1): 130 nM
IC50 (Homo sapiens, OPM-2, OPM-2): 40.2 nM
IC50 (Homo sapiens, PANC-1, PANC-1): 939 nM
IC50 (Homo sapiens, PANC-03-27, PANC-03.27): 2480 nM
IC50 (Homo sapiens, PANC-08-13, PANC-08.13): 136 nM
IC50 (Homo sapiens, PC-3, PC-3): 1890 nM
IC50 (Homo sapiens, PC-9, PC9): 95 nM
IC50 (Homo sapiens, PER-403, PER-403): 29.2 nM
IC50 (Homo sapiens, PER-624): 526 nM
IC50 (Homo sapiens, PER-704): 374 nM
IC50 (Homo sapiens, PL-21, PL-21): 329 nM
IC50 (Homo sapiens, PSN1, PSN-1): 504 nM
IC50 (Homo sapiens, PaTu 8988t, PA-TU-8988T): > 29300 nM
IC50 (Homo sapiens, Panc 02.03, PANC-02.03): 1370 nM
IC50 (Homo sapiens, Panc 04.03, PANC-04.03): 622 nM
IC50 (Homo sapiens, Panc1005, PANC-10.05): 2080 nM
IC50 (Homo sapiens, Pfeiffer): 352 nM
IC50 (Homo sapiens, RCK8, RCK8): 2110 nM
IC50 (Homo sapiens, RIVA): 68.4 nM
IC50 (Homo sapiens, RKO): 2210 nM
IC50 (Homo sapiens, RL): 1430 nM
IC50 (Homo sapiens, RPMI-6666, RPMI-6666): 2710 nM
IC50 (Homo sapiens, RPMI-8226, RPMI-8226): 135 nM
IC50 (Homo sapiens, RPMI-8226-DOX): 204 nM
IC50 (Homo sapiens, RPMI-8226-LR5): 303 nM
IC50 (Homo sapiens, RPMI-8226-MR20): 384 nM
IC50 (Homo sapiens, RT-112, RT-112): 1110 nM
IC50 (Homo sapiens, RVH-421, RVH-421): > 29300 nM
IC50 (Homo sapiens, Rec1, REC-1): 1990 nM
IC50 (Homo sapiens, SC-1, SC-1): 117 nM
IC50 (Homo sapiens, SCaBER): 255 nM
IC50 (Homo sapiens, SF-126, SF-126): 386 nM
IC50 (Homo sapiens, SF-295, SF295): 9840 nM
IC50 (Homo sapiens, SF-539, SF539): 75 nM
IC50 (Homo sapiens, SH-4, SH-4): 2560 nM
IC50 (Homo sapiens, SHI-1): 358 nM
IC50 (Homo sapiens, SIG-M5, SIG-M5): 316 nM
IC50 (Homo sapiens, SK-BR-3, SK-BR-3): 132 nM
IC50 (Homo sapiens, SK-CO-1, SK-CO-1): 473 nM
IC50 (Homo sapiens, SK-LU-1, SK-LU-1): 881 nM
IC50 (Homo sapiens, SK-MEL-5, SK-MEL-5): 111 nM
IC50 (Homo sapiens, SK-MES-1, SK-MES-1): 18500 nM
IC50 (Homo sapiens, SK-MM-2, SK-MM-2): 1260 nM
IC50 (Homo sapiens, SK-NEP-1, SK-NEP-1): 2240 nM
IC50 (Homo sapiens, SK-UT-1, SK-UT-1): 393 nM
IC50 (Homo sapiens, SKM-1, SKM-1): 110 nM
IC50 (Homo sapiens, SKNO-1, SKNO-1): 563 nM
IC50 (Homo sapiens, SNU-16, SNU16): 175 nM
IC50 (Homo sapiens, SNU-C1, SNUC1): 1520 nM
IC50 (Homo sapiens, SR-786, SR-786): 32.8 nM
IC50 (Homo sapiens, SU-DHL10, SU-DHL-10): 495 nM
IC50 (Homo sapiens, SU-DHL-2, SU-DHL-2): 86 nM
IC50 (Homo sapiens, SU-DHL-4, SU-DHL-4): 571 nM
IC50 (Homo sapiens, SU-DHL-5, SU-DHL-5): 132 nM
IC50 (Homo sapiens, SU-DHL-6, SU-DHL-6): 12.9 nM
IC50 (Homo sapiens, SU-DHL-8, SU-DHL-8): 1220 nM
IC50 (Homo sapiens, SU-DHL-16, SU-DHL-16): 124 nM
IC50 (Homo sapiens, SW48, SW48): 9340 nM
IC50 (Homo sapiens, SW480, SW480): 2260 nM
IC50 (Homo sapiens, SW780, SW-780): 450 nM
IC50 (Homo sapiens, SW837, SW837): 9150 nM
IC50 (Homo sapiens, SW900, SW900): 7970 nM
IC50 (Homo sapiens, SW982, SW982): 369 nM
IC50 (Homo sapiens, SW1271, SW1271): 3180 nM
IC50 (Homo sapiens, SW1417, SW-1417): 19600 nM
IC50 (Homo sapiens, SW1573, SW1573): 11400 nM
IC50 (Homo sapiens, SW1710, SW-1710): 10000 nM
IC50 (Homo sapiens, SW1990, SW-1990): 125 nM
IC50 (Homo sapiens, SW-403, SW403): 9760 nM
IC50 (Homo sapiens, SW-620, SW620): 1350 nM
IC50 (Homo sapiens, T47D, T-47D): 225 nM
IC50 (Homo sapiens, T84, T84): 1680 nM
IC50 (Homo sapiens, T98MG): 1300 nM
IC50 (Homo sapiens, T-24, T24): 650 nM
IC50 (Homo sapiens, TCC-SUP, TCCSUP): 11200 nM
IC50 (Homo sapiens, TF-1, TF-1): 138 nM
IC50 (Homo sapiens, THP-1, THP-1): 951 nM
IC50 (Homo sapiens, Toledo): 443 nM
IC50 (Homo sapiens, U138-MG, U138MG): > 29300 nM
IC50 (Homo sapiens, U266B1): 652 nM
IC50 (Homo sapiens, U2932, U2932): 336 nM
IC50 (Homo sapiens, U-87 MG): 128 nM
IC50 (Homo sapiens, U-251, U251MG): 3490 nM
IC50 (Homo sapiens, U-937, U937): 48.6 nM
IC50 (Homo sapiens, U-2940, U2940): 2350 nM
IC50 (Homo sapiens, UMC-11, UMC11): 10700 nM
IC50 (Homo sapiens, UMUC3, UM-UC-3): 19200 nM
IC50 (Homo sapiens, VCaP): > 29300 nM
IC50 (Homo sapiens, VM-CUB-1, VM-CUB1): 1580 nM
IC50 (Homo sapiens, WM 266-4, WM-266-4): 17200 nM
IC50 (Homo sapiens, WSU-FSCCL): 268 nM
IC50 (Homo sapiens, WSU-NHL): 75.7 nM
IC50 (Homo sapiens, WSUDLCL2, WSU-DLCL2): 652 nM
IC50 (Homo sapiens, WiDr): 438 nM
IC50 (Homo sapiens, YH13): > 29300 nM
IC50 (Homo sapiens, YKG-1, YKG1): 254 nM
IC50 (Homo sapiens, Z-138, Z-138): 13.6 nM
IC50 (Homo sapiens, ZR-75-1, ZR-75-1): 2620 nM
IC50 (Homo sapiens, majority (147/276) of cell lines): < 1000 nM
IC50 (J82): 20900 nM
IC50 (JM1): 76 nM
IC50 (JVM-2): 172 nM
IC50 (JeKo-1): 6190 nM
IC50 (LN-229): 1150 nM
IC50 (MAVER-1): 133 nM
IC50 (MCF-7): 215 nM
IC50 (MDA-MB-231): 2930 nM
IC50 (MINO): 536 nM
IC50 (NCI-H526-R): 219 nM
IC50 (NCI-H526): 138 nM
IC50 (PER-403): 29 nM
IC50 (PER-624): 526 nM
IC50 (PER-704): 375 nM
IC50 (Pfeiffer): 352 nM
IC50 (RCK8): 2110 nM
IC50 (REC-1): 1990 nM
IC50 (RIVA): 68 nM
IC50 (RL): 1430 nM
IC50 (SF295): 9840 nM
IC50 (SK-BR-3): 131 nM
IC50 (SU-DHL-4): 571 nM
IC50 (SU-DHL-5): 132 nM
IC50 (SU-DHL-6): 13 nM
IC50 (SU-DHL-8): 1220 nM
IC50 (SU-DHL-10): 495 nM
IC50 (SU-DHL-16): 124 nM
IC50 (SW-780): 451 nM
IC50 (T24): 650 nM
IC50 (U251MG): 3490 nM
IC50 (U937): 49 nM
IC50 (U2932): 336 nM
IC50 (U2940): 2350 nM
IC50 (U-87MG): 127 nM
IC50 (UM-UC-3): 19200 nM
IC50 (WSU-DLCL2): 651 nM
IC50 (Z-138): 14 nM
IC50 (ZR-75-1): 2620 nM

— paper PMC6018746, “Activation of the p53-MDM4 regulatory axis defines the anti-tumour response to PRMT5 inhibition through its role in regulating cellular splicing” (Scientific Reports, 2018)
